Test results as given in PMC4980153 (Biochemical pharmacology, 2016).
“And” between values parts separate entries of the source, which are not always exact repeats. Identical values can stand only once. Counter-ions that a name gives are not always drawn. Like-named read-outs stand apart in the source and are kept apart here.

Legend:
[H107K] BB3* receptor = [H107K] BB3* receptor (Homo sapiens, UniProt P32247, H107K/H294R); test: 125I-peptide #1 competition binding, CHOP cells
[1] = target: [R127H] wild type BB3 receptor (Homo sapiens, UniProt P32247, R127H); test: 125I-peptide #1 competition binding, CHOP cells
[2] = target: [H107K] wild type BB3 receptor (Homo sapiens, UniProt P32247, H107K); test: 125I-peptide #1 competition binding, CHOP cells
[R127H] BB3* receptor = [R127H] BB3* receptor (Homo sapiens, UniProt P32247, H294R/R127H); test: 125I-peptide #1 competition binding, CHOP cells
[3] = tested on: (e1-BB3) BB2 gain-of-affinity chimera; test: 125I-peptide #1 competition binding, CHOP cells; design: species or system human, mouse; conditions: EC1 of BB2 replaced by EC1 of BB3, vs wild type BB2
[4] = target: [H107F] wild type BB3 receptor (Homo sapiens, UniProt P32247, H107F); test: 125I-peptide #1 competition binding, CHOP cells
[R127K] BB3* receptor = [R127K] BB3* receptor (Homo sapiens, UniProt P32247, H294R/R127K); test: 125I-peptide #1 competition binding, CHOP cells
[5] = target: [R127N] wild type BB3 receptor (Homo sapiens, UniProt P32247, R127N); test: 125I-peptide #1 competition binding, CHOP cells
[6] = target: (e2-BB2) BB3* loss-of-affinity chimera (Homo sapiens, UniProt P32247, D193V/E201I/E215K/H294R/K196T/K210N/K211E/L213H/L219M/L220A/M198Q/N187D/N195D/P194K/Q214P/R192H/S205P/T190P/T204A/V188L/V208H/Y189H); test: 125I-peptide #1 competition binding, CHOP cells; design: species or system mouse; conditions: EC2 of BB3* replaced by EC2 of BB2, vs BB3*
[7] = target: [H107Y] wild type BB3 receptor (Homo sapiens, UniProt P32247, H107Y); test: 125I-peptide #1 competition binding, CHOP cells
[8] = target: [H107K, G112R] BB3* receptor (Homo sapiens, UniProt P32247, G112R/H107K/H294R); test: 125I-peptide #1 competition binding, CHOP cells
[R127N] BB3* receptor = [R127N] BB3* receptor (Homo sapiens, UniProt P32247, H294R/R127N); test: 125I-peptide #1 competition binding, CHOP cells
[9] = target: [V101A] wild type BB3 receptor (Homo sapiens, UniProt P32247, V101A); test: 125I-peptide #1 competition binding, CHOP cells
[10] = tested on: BB3 and BB3* receptors and their mutants
[11] = target: BB3 and BB3* receptors and their mutants (Homo sapiens, UniProt P32247, H294R/R127H); conditions: [R127H], background not stated (discussion)
[12] = target: BB3 and BB3* receptors and their mutants (Homo sapiens, UniProt P32247, H294R/R127K); conditions: [R127K], background not stated (discussion)
[L123I] BB3* receptor = [L123I] BB3* receptor (Homo sapiens, UniProt P32247, H294R/L123I); test: 125I-peptide #1 competition binding, CHOP cells
[H107D] BB3* receptor = [H107D] BB3* receptor (Homo sapiens, UniProt P32247, H107D/H294R); test: 125I-peptide #1 competition binding, CHOP cells
[S124P] BB3* receptor = [S124P] BB3* receptor (Homo sapiens, UniProt P32247, H294R/S124P); test: 125I-peptide #1 competition binding, CHOP cells
[13] = target: (e1-BB2) BB3* loss-of-affinity chimera (Homo sapiens, UniProt P32247, E111D/G112R/H107K/H294R/T106S); test: 125I-peptide #1 competition binding, CHOP cells; design: species or system mouse; conditions: EC1 of BB3* replaced by EC1 of BB2, vs BB3*
[14] = target: [H107K, G112R] wild type BB3 receptor (Homo sapiens, UniProt P32247, G112R/H107K); test: 125I-peptide #1 competition binding, CHOP cells
[15] = target: [R127K] wild type BB3 receptor (Homo sapiens, UniProt P32247, R127K); test: 125I-peptide #1 competition binding, CHOP cells
Chain of [R127K] wild type BB3 receptor (P32247 whole entry R127K): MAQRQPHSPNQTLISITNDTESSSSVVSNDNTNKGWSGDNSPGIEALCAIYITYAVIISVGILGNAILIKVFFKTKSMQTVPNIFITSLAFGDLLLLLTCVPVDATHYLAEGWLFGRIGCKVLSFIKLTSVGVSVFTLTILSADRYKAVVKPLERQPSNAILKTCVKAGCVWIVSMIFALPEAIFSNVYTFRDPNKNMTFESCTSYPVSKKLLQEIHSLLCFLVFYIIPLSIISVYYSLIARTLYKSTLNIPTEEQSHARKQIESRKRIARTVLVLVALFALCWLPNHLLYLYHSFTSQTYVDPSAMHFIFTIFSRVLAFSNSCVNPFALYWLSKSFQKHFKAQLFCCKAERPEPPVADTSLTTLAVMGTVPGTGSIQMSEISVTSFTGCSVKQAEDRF

Chain of (e1-BB2) BB3* loss-of-affinity chimera (P32247 whole entry T106S/H107K/E111D/G112R/H294R): as the sequence (P32247 whole entry R127K) above, with T106S, H107K, E111D, G112R, K127R, H294R counted along it
Chain of [H107F] wild type BB3 receptor (P32247 whole entry H107F): as the sequence (P32247 whole entry R127K) above, with H107F, K127R counted along it
Chain of [H107K] BB3* receptor (P32247 whole entry H107K/H294R): as the sequence (P32247 whole entry R127K) above, with H107K, K127R, H294R counted along it
Chain of [L123I] BB3* receptor (P32247 whole entry L123I/H294R): as the sequence (P32247 whole entry R127K) above, with L123I, K127R, H294R counted along it
Chain of [H107K, G112R] wild type BB3 receptor (P32247 whole entry H107K/G112R): as the sequence (P32247 whole entry R127K) above, with H107K, G112R, K127R counted along it
Chain of (e2-BB2) BB3* loss-of-affinity chimera (P32247 1-399 with the stated changes): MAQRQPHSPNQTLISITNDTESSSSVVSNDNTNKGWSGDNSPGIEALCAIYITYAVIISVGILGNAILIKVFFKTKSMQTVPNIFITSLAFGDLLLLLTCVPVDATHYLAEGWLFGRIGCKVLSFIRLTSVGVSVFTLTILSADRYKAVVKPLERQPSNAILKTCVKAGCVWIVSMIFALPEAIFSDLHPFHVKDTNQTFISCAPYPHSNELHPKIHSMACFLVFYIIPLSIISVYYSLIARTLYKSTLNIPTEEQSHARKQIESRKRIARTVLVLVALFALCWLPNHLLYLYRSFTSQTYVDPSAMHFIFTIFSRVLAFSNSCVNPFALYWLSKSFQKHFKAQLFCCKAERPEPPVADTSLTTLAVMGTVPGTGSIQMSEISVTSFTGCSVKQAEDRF
Chain of [R127H] wild type BB3 receptor (P32247 whole entry R127H): as the sequence (P32247 whole entry R127K) above, with K127H counted along it
Chain of [H107Y] wild type BB3 receptor (P32247 whole entry H107Y): as the sequence (P32247 whole entry R127K) above, with H107Y, K127R counted along it
Chain of BB3 and BB3* receptors and their mutants (Homo sapiens, UniProt P32247, H294R/R127H) (P32247 whole entry R127H/H294R): as the sequence (P32247 whole entry R127K) above, with K127H, H294R counted along it
Chain of [R127H] BB3* receptor (P32247 whole entry R127H/H294R): as the sequence (P32247 whole entry R127K) above, with K127H, H294R counted along it
Chain of [H107K] wild type BB3 receptor (P32247 whole entry H107K): as the sequence (P32247 whole entry R127K) above, with H107K, K127R counted along it
Chain of [H107K, G112R] BB3* receptor (P32247 whole entry H107K/G112R/H294R): as the sequence (P32247 whole entry R127K) above, with H107K, G112R, K127R, H294R counted along it
Chain of [R127N] wild type BB3 receptor (P32247 whole entry R127N): as the sequence (P32247 whole entry R127K) above, with K127N counted along it
Chain of BB3 and BB3* receptors and their mutants (Homo sapiens, UniProt P32247, H294R/R127K) (P32247 whole entry R127K/H294R): as the sequence (P32247 whole entry R127K) above, with H294R counted along it
Chain of [R127K] BB3* receptor (P32247 whole entry R127K/H294R): as the sequence (P32247 whole entry R127K) above, with H294R counted along it
Chain of [R127N] BB3* receptor (P32247 whole entry R127N/H294R): as the sequence (P32247 whole entry R127K) above, with K127N, H294R counted along it
Chain of [V101A] wild type BB3 receptor (P32247 whole entry V101A): as the sequence (P32247 whole entry R127K) above, with V101A, K127R counted along it
Chain of [S124P] BB3* receptor (P32247 whole entry S124P/H294R): as the sequence (P32247 whole entry R127K) above, with S124P, K127R, H294R counted along it
Chain of [H107D] BB3* receptor (P32247 whole entry H107D/H294R): as the sequence (P32247 whole entry R127K) above, with H107D, K127R, H294R counted along it

decrease in affinity ([H107K] BB3* receptor): 54 fold
decrease in affinity [1]: 175 fold
decrease in affinity [2]: 35 fold
decrease in affinity ([R127H] BB3* receptor): 192 fold
decrease in affinity [4]: 4 fold
decrease in affinity ([R127K] BB3* receptor): 45 fold
decrease in affinity [5]: 12 fold
decrease in affinity [6]: 23 fold
decrease in affinity [7]: 13 fold
decrease in affinity [8]: 250 fold
decrease in affinity ([R127N] BB3* receptor): 78 fold
decrease in affinity [9]: 179 fold
decrease in affinity [11]: > 192 fold
decrease in affinity [12]: 45 fold
decrease in affinity ([L123I] BB3* receptor): 4 fold
decrease in affinity ([H107D] BB3* receptor): > 192 fold
decrease in affinity ([S124P] BB3* receptor): 54 fold
decrease in affinity [13]: 377 fold and > 377 fold and > 400 fold
decrease in affinity [14]: 68 fold
decrease in affinity [15]: > 526 fold
Compound: CC(C)C[C@H](NC(=O)C[C@H](O)[C@H](CC1CCCCC1)NC(=O)[C@H](Cc1c[nH]cn1)NC(=O)[C@H](Cc1ccccc1)NC(=O)OC(C)(C)C)C(=O)NCc1cccc([N+](C)(C)C)c1 [Bantag-1, Boc-Phe-His-4-amino-5-cyclohexyl-2,4,5-trideoxypentonyl-Leu- (3-dimethylamino) benzylamide N-methylammonium trifluoroacetate]
increase in affinity [3]: 5 fold
decrease in affinity ([10]; E111D or G112R BB3 receptor mutants): 1 to 2.5 fold
loss in affinity ([10]; [G112R] in wild type and BB3* receptor): 2 fold and 2–3 fold
decrease in affinity ([10]; [H107F] and [H107Y] in BB3*): 7–16 fold
decrease in affinity ([10]; [H107K, E111D, G112R] in wild type and BB3*): 500 fold and > 500 fold
decrease in affinity ([10]; [H107K], BB3 and BB3* not separated): 60 fold and 35–54 fold and 50 fold
decrease in affinity ([10]; [H107N] in either BB3 or BB3*): > 58 fold
decrease in affinity ([10]; [H107W], background not separated): > 190 times
decrease in affinity ([10]; [H107Y] and [H107F] in either BB3 or BB3*): 4–16 fold and 5–17 fold
decrease in affinity ([10]; [L123I, R127Q] in wild type and BB3*): > 2,000 fold
decrease in affinity ([10]; [R127E] in wild type and BB3*): 188 fold and > 200 fold
decrease in affinity ([10]; [R127Q], [L123I] and [S124P] in wild type BB3): 233–536 fold
decrease in affinity ([10]; [R127Q], background not separated): 400 fold and > 390 fold and > 400 fold
Ki ([10]; read-out: Ki (range given), [G112R] in wild type and BB3* receptor): 0.0116 to 0.016 µM
decrease in affinity ([10]; single EC1 amino acid substitutions alone): 1.4–54 fold
